Measurements reported in patent US8940715B2, “Lipid-regulating agent and use thereof” (Hayashibara Co., Ltd., priority 2003, dated 2015).
Marks after values point to notes of the source that are not given here.

Key:
[1] = Experiment 1-1 feeding test on rat: weight and amount of feed taken; type: in vivo; conditions: 4 weeks
Source text: (§1) Fifty 5-weeks aged male Wister-rats, having a weight of 110 to 120 grams, commercialized by Charles River Japan, Kanagawa, Japan, were fed on a non-fiber feed having a composition shown in Table 1 for one week for habituation. After the habituation, the rats were randomly divided into five groups and each group was fed on either of feeds shown in Table 1, i.e., a non-fiber feed, a feed in which cellulose was incorporated into the non-fiber feed to give a content of 5% (hereinafter, abbreviated as “fiber feed”), a feed in which powdery anhydrous crystalline CTS (purity of CTS: 99.5%), prepared by the method of Example A-3 described later, was incorporated into the non-fiber feed to give a content of 1, 2, or 5%, on a dry solid basis, and the feeding test was carried out for four weeks. A fiber-feed and three kinds of feeds comprising CTS were prepared to give the total content of cellulose or CTS and corn starch of 44.75% to the total weight of each feed. The rats were kept under the conditions of keeping the temperature at 25° C., lighting and shading for 12 hours each/day, and allowing the rats to eat the respective feed and water freely. After the completion of the feeding test, weight of individuals in each group was measured and an average weight and an average increase of weight of each group during the test period were calculated. Also, the total amount of feed fed to individual rat in each group during the 4-weeks test period and an average amount of CTS taken per day per kg-weight-rat were calculated and the results are in Table 2.

male Wister-rats [2] = test: Experiment 1-1 amount of lipids in blood plasma; type: in vivo; conditions: 4 weeks, rat
Source text: as §1
After the feeding test, each rat was fasted for one day and incised under anesthesia with ether. Then, blood was collected from the main vein of each rat using a syringe treated with 1% EDTA. Each collected blood was centrifuged at 3,500 rpm for 10 minutes to separate blood plasma and the contents of total cholesterol, triglyceride, and phospholipids in the resulting blood plasma were measured by using kits, “CHOLESTEROL C-TEST-WAKO”, “TRIGLYCERIDE-TEST-WAKO”, and “PHOSPHOLIPID C-TEST-WAKO”, respectively, commercialized by Wako Pure Chemical Industries, Ltd., Osaka, Japan. In order to check the hepatic function disorder, GOT activity in the blood plasma was measured using a kit, “GOT-TEST-WAKO”, commercialized by Wako Pure Chemical Industries, Ltd., Osaka, Japan. The content of LDL-cholesterol was calculated by subtracting the content of HDL-cholesterol from the total content of cholesterol. A significant difference test was done with respect to the group fed on fiber feed. In the case of cholesterol, a significant difference test was done with respect to the group fed on non-fiber feed because it was believed that cellulose has no activity of reducing the amount of cholesterol by oral intake as described in “SHOKUMOTSU-SENI KISO-TO-OYO (Dietary fiber, its basis and application)” published by ASAKURA-SHOTEN in 1997.

male Wister-rats [3] = test: Experiment 1-1 GOT activity in blood plasma (hepatic function disorder check); type: in vivo, rat; conditions: for GOT: blood plasma, 4 weeks, rat
Source text: as §1
After the feeding test, each rat was fasted for one day and incised under anesthesia with ether. Then, blood was collected from the main vein of each rat using a syringe treated with 1% EDTA. Each collected blood was centrifuged at 3,500 rpm for 10 minutes to separate blood plasma and the contents of total cholesterol, triglyceride, and phospholipids in the resulting blood plasma were measured by using kits, “CHOLESTEROL C-TEST-WAKO”, “TRIGLYCERIDE-TEST-WAKO”, and “PHOSPHOLIPID C-TEST-WAKO”, respectively, commercialized by Wako Pure Chemical Industries, Ltd., Osaka, Japan. In order to check the hepatic function disorder, GOT activity in the blood plasma was measured using a kit, “GOT-TEST-WAKO”, commercialized by Wako Pure Chemical Industries, Ltd., Osaka, Japan. The content of LDL-cholesterol was calculated by subtracting the content of HDL-cholesterol from the total content of cholesterol. A significant difference test was done with respect to the group fed on fiber feed. […]

male Wister-rats [4] = test: Experiment 1-1 wet-weight of adipose tissues around organs; type: in vivo; conditions: 4 weeks, rat
Source text: as §1
(§2) After collecting the blood described above, each rat was killed by dislocating its cervical vertebrae and anatomized. Then, adipose tissues surrounding intestinal membrane, kidney, and testis, as well as liver and cecum, were collected. The wet-weight of those adipose tissues was measured and the results are in Table 4. In the case of liver, the wet-weight and the amount of total lipid, total cholesterol, triglyceride, and phospholipids were measured and the results are in Table 5. The amount of total lipid, total cholesterol, triglyceride, and phospholipids in the liver were measured by the steps of homogenizing four parts by weight of liver with four parts by weight of water using a homogenizer; extracting lipid by repeating three-times the following procedure of adding eight milliliters of a chloroform-methanol (2:1, by volume) solution, stirring the mixture, and centrifuging (3,000 rpm, 15 min) to collect chloroform phase; concentrating the resulting chloroform solution; and measuring those according to the same procedure used in the case of lipids in blood plasma.

male Wister-rats [5] = test: Experiment 1-1 liver weight and lipids in liver; type: in vivo; conditions: 4 weeks, rat
Source text: as §1, §2

male Wister-rats [6] = test: Experiment 1-1 cecal tissue, cecal content and bile acids in cecum; type: in vivo; conditions: 4 weeks, rat
Source text: Fifty 5-weeks aged male Wister-rats, having a weight of 110 to 120 grams, commercialized by Charles River Japan, Kanagawa, Japan, were fed on a non-fiber feed having a composition shown in Table 1 for one week for habituation. After the habituation, the rats were randomly divided into five groups and each group was fed on either of feeds shown in Table 1, i.e., a non-fiber feed, a feed in which cellulose was incorporated into the non-fiber feed to give a content of 5% (hereinafter, abbreviated as “fiber feed”), a feed in which powdery anhydrous crystalline CTS (purity of CTS: 99.5%), prepared by the method of Example A-3 described later, was incorporated into the non-fiber feed to give a content of 1, 2, or 5%, on a dry solid basis, and the feeding test was carried out for four weeks. A fiber-feed and three kinds of feeds comprising CTS were prepared to give the total content of cellulose or CTS and corn starch of 44.75% to the total weight of each feed. […] After the completion of the feeding test, weight of individuals in each group was measured and an average weight and an average increase of weight of each group during the test period were calculated. Also, the total amount of feed fed to individual rat in each group during the 4-weeks test period and an average amount of CTS taken per day per kg-weight-rat were calculated and the results are in Table 2.
Just after extirpating cecum as described above, its content was collected and weighted. The concentration of bile acids was measured by the steps of adding two milliliters of 80% (v/v) methanol aqueous solution to 0.2 gram of the cecal content, extracting bile acids at 70° C. for 30 min, centrifuging (3,500 rpm, 10 min) the mixture, drying the resulting supernatant in a dessicator with P2O5 for overnight, and measuring bile acids using a kit, “BILE ACID-TEST WAKO”, commercialized by Wako Pure Chemical Industries, Ltd., Osaka, Japan. The amount of bile acids was calculated by multiplying the concentration of bile acids and weight of the cecal content. […]

male Wister-rats [7] = test: Experiment 1-1 observation of diarrhea during feeding test; type: in vivo, rat
Source text: as §1
The symptom of diarrhea was not observed in rats fed on a feed with CTS content of 2%.

[8] = 5% (w/w) CTS (Fiber: 5% cellulose) in feed

GOT (male Wister-rats [3]; 1% (w/w) CTS in feed): 10.3 IU
GOT (male Wister-rats [3]; 2% (w/w) CTS in feed): 10.2 IU
GOT (male Wister-rats [3]; [8]): 10.7 IU
GOT values (markers of functional disorder of liver) during the test period (male Wister-rats [3]; rats, regardless of the intake of CTS): not significantly changed
symptom of diarrhea (male Wister-rats [7]; rats fed on a feed with CTS content of 2%): not observed
duration of symptom of diarrhea after initial intake of CTS (male Wister-rats [7]; rats fed on a feed with CTS content of 5%): 2 to 3 days
symptom of diarrhea (individuals affected) (male Wister-rats [7]; rats fed on a feed with CTS content of 5%, then cured): two individuals in ten individuals
Compound: OCC1OC2OCC3O[C@H](O[C@H]4C(O)C(CO)OC(OCC5O[C@H](O[C@@H](C1O)C2O)C(O)C(O)[C@@H]5O)C4O)C(O)C(O)[C@@H]3O (stereo partly drawn) [CTS, cyclo {→6)-α-D-glucopyranosyl-(1→3)-α-D-glucopyranosyl-(1→6)-α-D-glucopyranosyl-(1→3)-α-D-glucopyranosyl-(1→}]
Increase of weight ([1]; 1% (w/w) CTS in feed): 164 g/individual/28 days
Weight ([1]; 1% (w/w) CTS in feed): 337 g/individual
Increase of weight ([1]; 2% (w/w) CTS in feed): 169 g/individual/28 days
Weight ([1]; 2% (w/w) CTS in feed): 342 g/individual
Increase of weight [1, 8]: 149* g/individual/28 days
Weight [1, 8]: 322* g/individual
Phospholipids (male Wister-rats [2]; 1% (w/w) CTS in feed): 116 mg/dL
Total cholesterols (male Wister-rats [2]; 1% (w/w) CTS in feed): 67.1 mg/dL
Triglycerides (male Wister-rats [2]; 1% (w/w) CTS in feed): 44.2 mg/dL
Phospholipids (male Wister-rats [2]; 2% (w/w) CTS in feed): 115 mg/dL
Total cholesterols (male Wister-rats [2]; 2% (w/w) CTS in feed): 66.1 mg/dL
Triglycerides (male Wister-rats [2]; 2% (w/w) CTS in feed): 28.7* mg/dl
Phospholipids (male Wister-rats [2]; [8]): 107 mg/dL
Total cholesterols (male Wister-rats [2]; [8]): 59.4* mg/dl
Triglycerides (male Wister-rats [2]; [8]): 21.7* mg/dl
Adipose surrounding intestinal membrane (male Wister-rats [4]; 1% (w/w) CTS in feed): 3.7 g/individual
Adipose surrounding kidney (male Wister-rats [4]; 1% (w/w) CTS in feed): 3.7* g/individual
Adipose surrounding testis (male Wister-rats [4]; 1% (w/w) CTS in feed): 4.0* g/individual
Adipose surrounding intestinal membrane (male Wister-rats [4]; 2% (w/w) CTS in feed): 3.1* g/individual
Adipose surrounding kidney (male Wister-rats [4]; 2% (w/w) CTS in feed): 2.9* g/individual
Adipose surrounding testis (male Wister-rats [4]; 2% (w/w) CTS in feed): 3.9* g/individual
Adipose surrounding intestinal membrane (male Wister-rats [4]; [8]): 1.9* g/individual
Adipose surrounding kidney (male Wister-rats [4]; [8]): 2.1* g/individual
Adipose surrounding testis (male Wister-rats [4]; [8]): 3.1* g/individual
Phospholipids in liver (male Wister-rats [5]; 1% (w/w) CTS in feed): 140 mg/individual
Total cholesterols in liver (male Wister-rats [5]; 1% (w/w) CTS in feed): 35.9 mg/individual
Total lipids in liver (male Wister-rats [5]; 1% (w/w) CTS in feed): 510 mg/individual
Triglycerides in liver (male Wister-rats [5]; 1% (w/w) CTS in feed): 186 mg/individual
Phospholipids in liver (male Wister-rats [5]; 2% (w/w) CTS in feed): 149 mg/individual
Total cholesterols in liver (male Wister-rats [5]; 2% (w/w) CTS in feed): 37.2 mg/individual
Total lipids in liver (male Wister-rats [5]; 2% (w/w) CTS in feed): 598 mg/individual
Triglycerides in liver (male Wister-rats [5]; 2% (w/w) CTS in feed): 254 mg/individual
Phospholipids in liver (male Wister-rats [5]; [8]): 142 mg/individual
Total cholesterols in liver (male Wister-rats [5]; [8]): 35.4 mg/individual
Total lipids in liver (male Wister-rats [5]; [8]): 575 mg/individual
Triglycerides in liver (male Wister-rats [5]; [8]): 239 mg/individual
Bile acids in cecum (male Wister-rats [6]; 1% (w/w) CTS in feed): 1.15* μmol
Bile acids in cecum (male Wister-rats [6]; 2% (w/w) CTS in feed): 1.36* μmol
Bile acids in cecum (male Wister-rats [6]; [8]): 1.53* μmol
